Measured values reported in DBAASP.
Values after ≈ are worked out from the molar mass of the structure shown.

Legend:
Assay in all cases: ≥ marks a high value that may be exact or a test limit, other limits are often not marked, values filed in µg/mL are converted to µM
[1] = system: Pseudomonas aeruginosa PAO1
Escherichia coli ML-35p = system: Escherichia coli ML-35p
[2] = system: Staphylococcus aureus ATCC 25923
Bacillus subtilis = system: Bacillus subtilis
[3] = system: Candida albicans ATCC 2002
[4] = system: Pseudomonas aeruginosa ATCC 27853
[5] = system: Staphylococcus aureus ATCC 43300
[6] = system: Klebsiella pneumoniae ATCC 700603
[7] = system: Cryptococcus neoformans ATCC 208821
[8] = system: Escherichia coli ATCC 25922
[9] = system: Candida albicans ATCC 90028
[10] = system: Acinetobacter baumannii ATCC 19606
[11] = system: Staphylococcus aureus ATCC 33591
[12] = system: Cryptococcus neoformans ATCC 32045
[13] = system: Pseudomonas aeruginosa ATCC 10145
[14] = system: Candida albicans ATCC 10231
[15] = system: Escherichia coli ATCC 2592

SMILES	MIC [4] [µM]	MIC [5] [µM]	MIC [11] [µM]	MIC [12] [µM]	MIC [13] [µM]	MIC [14] [µM]	MIC [15] [µM]	further results
CC(C)C[C@H](NC(=O)[C@H](C)NC(=O)CNC(=O)[C@H](Cc1ccccc1)NC(=O)[C@H](CC(C)C)NC(=O)[C@H](CC(C)C)NC(=O)[C@@H]1CCCN1C(=O)[C@H](Cc1ccccc1)NC(=O)[C@@H](N)Cc1ccccc1)C(=O)N[C@@H](CO)C(=O)N[C@@H](CO)C(=O)N[C@@H](Cc1cnc[nH]1)C(=O)N[C@@H](CC(C)C)C(=O)N1CCC[C@H]1C(=O)N[C@@H](CCCCN)C(=O)N[C@@H](CC(C)C)C(=O)N[C@@H](Cc1ccccc1)C(N)=O [FFPLLFGALSSHLPKLF]	1.94 (≈ 3.75 µg/mL)	3.88 (≈ 7.5 µg/mL)	–	–	–	–	–	MIC [1]: 1.94 µM (≈ 3.75 µg/mL); MIC (Escherichia coli ML-35p): 7.75 µM (≈ 15 µg/mL); MIC [2]: 1.94 µM (≈ 3.75 µg/mL); MIC (Bacillus subtilis): 3.88 µM (≈ 7.5 µg/mL); MIC [3]: 1.94 µM (≈ 3.75 µg/mL)
CC(C)C[C@H](NC(=O)[C@H](CCCN=C(N)N)NC(=O)[C@H](CC(C)C)NC(=O)[C@H](CCCN=C(N)N)NC(=O)[C@H](CC(C)C)NC(=O)[C@H](CCCN=C(N)N)NC(=O)[C@H](CC(C)C)NC(=O)[C@H](CCCN=C(N)N)NC(=O)[C@H](CC(C)C)NC(=O)[C@H](CCCN=C(N)N)NC(=O)[C@H](CC(C)C)NC(=O)[C@H](CCCN=C(N)N)NC(=O)[C@H](CC(C)C)NC(=O)[C@H](CCCN=C(N)N)NC(=O)[C@H](CC(C)C)NC(=O)[C@H](CCCN=C(N)N)NC(=O)[C@@H](N)CC(C)C)C(=O)N[C@@H](CCCN=C(N)N)C(=O)O [LRLRLRLRLRLRLRLRLR]	–	–	≥ 72.4	≥ 36	≥ 102	145 (≈ 354 µg/mL)	≥ 51.2	–
CC[C@H](C)[C@H](NC(=O)CNC(=O)[C@H](Cc1c[nH]c2ccccc12)NC(=O)[C@H](CS)NC(=O)[C@H](CO)NC(=O)[C@@H](NC(=O)[C@H](CCC(N)=O)NC(=O)[C@H](Cc1ccccc1)NC(=O)[C@@H]1CCCN1C(=O)[C@@H]1CCCN1C(=O)[C@H](CCCN=C(N)N)NC(=O)[C@H](CCCCN)NC(=O)[C@H](Cc1c[nH]c2ccccc12)NC(=O)[C@@H](NC(=O)[C@H](CCCCN)NC(=O)[C@@H](N)Cc1ccccc1)[C@@H](C)O)[C@@H](C)O)C(=O)N[C@H](C(=O)N[C@@H](CCCCN)C(=O)N[C@@H](CCC(=O)O)C(=O)O)[C@@H](C)CC [FKTWKRPPFQTSCWGIIKE]	23.4 (≈ 55 µg/mL)	23.4 (≈ 55 µg/mL)	–	–	–	–	–	MIC [1]: 23.4 µM (≈ 55 µg/mL); MIC (Escherichia coli ML-35p): ≥ 46.8 µM; MIC [2]: 11.7 µM (≈ 27.5 µg/mL); MIC (Bacillus subtilis): ≥ 46.8 µM; MIC [3]: 5.84 µM (≈ 13.8 µg/mL)
C[C@H](NC(=O)[C@H](Cc1ccccc1)NC(=O)[C@H](CCCCN)NC(=O)[C@H](CCCCN)NC(=O)[C@H](C)NC(=O)[C@H](Cc1ccccc1)NC(=O)[C@H](CCCCN)NC(=O)[C@H](CCCCN)NC(=O)[C@H](C)NC(=O)[C@H](Cc1ccccc1)NC(=O)[C@H](CCCCN)NC(=O)[C@H](CCCCN)NC(=O)[C@H](C)NC(=O)[C@H](Cc1ccccc1)NC(=O)[C@H](CCCCN)NC(=O)[C@H](CCCCN)NC(=O)[C@H](C)NC(=O)[C@H](Cc1ccccc1)NC(=O)[C@H](CCCCN)NC(=O)[C@H](CCCCN)NC(=O)[C@H](C)NC(=O)[C@H](Cc1ccccc1)NC(=O)[C@@H](N)CCCCN)C(=O)N[C@@H](CCCCN)C(=O)O [KFAKKFAKKFAKKFAKKFAKKFAK]	–	–	≥ 61.7	7.9 (≈ 22.6 µg/mL)	5.58 (≈ 16 µg/mL)	34.9 (≈ 100 µg/mL)	3.95 (≈ 11.3 µg/mL)	–
C[C@H](NC(=O)[C@H](CCCCN)NC(=O)[C@H](Cc1ccccc1)NC(=O)[C@H](C)NC(=O)[C@H](CCCCN)NC(=O)[C@H](Cc1ccccc1)NC(=O)[C@H](C)NC(=O)[C@H](CCCCN)NC(=O)[C@H](Cc1ccccc1)NC(=O)[C@H](C)NC(=O)[C@H](CCCCN)NC(=O)[C@H](Cc1ccccc1)NC(=O)[C@H](C)NC(=O)[C@H](CCCCN)NC(=O)[C@H](Cc1ccccc1)NC(=O)[C@H](C)NC(=O)[C@H](CCCCN)NC(=O)[C@H](Cc1ccccc1)NC(=O)[C@H](C)NC(=O)[C@H](CCCCN)NC(=O)[C@@H](N)Cc1ccccc1)C(=O)O [FKAFKAFKAFKAFKAFKAFKA]	–	–	≥ 205	2.32 (≈ 5.66 µg/mL)	13.1 (≈ 32 µg/mL)	145 (≈ 354 µg/mL)	9.26 (≈ 22.6 µg/mL)	–

More lines, main results first:

MIC [4] [µM]	MIC [5] [µM]	MIC [11] [µM]	MIC [12] [µM]	MIC [13] [µM]	MIC [14] [µM]	MIC [15] [µM]	SMILES	further results
> 17.9	> 17.9	–	–	–	–	–	CC(C)C[C@H](NC(=O)[C@H](CCCN=C(N)N)NC(=O)[C@@H]1CCCN1C(=O)[C@H](CCCN=C(N)N)NC(=O)[C@H](Cc1cnc[nH]1)NC(=O)[C@H](Cc1cnc[nH]1)NC(=O)[C@@H](N)CO)C(=O)N[C@@H](Cc1ccccc1)C(=O)N[C@@H](Cc1cnc[nH]1)C(=O)N[C@@H](CCCN=C(N)N)C(=O)N[C@@H](CCCN=C(N)N)C(=O)N[C@@H](CCCN=C(N)N)C(=O)N[C@@H](Cc1cnc[nH]1)C(=O)O [SHHRPRLFHRRRH]	MIC [6]: > 17.9 µM; MIC [7]: 17.9 µM (≈ 32 µg/mL); MIC [8]: > 17.9 µM; MIC [9]: 17.9 µM (≈ 32 µg/mL); MIC [10]: > 17.9 µM
–	3.57 (≈ 12.5 µg/mL)	–	–	–	–	–	CC[C@H](C)[C@H](NC(=O)[C@H](C)NC(=O)[C@@H](NC(=O)[C@@H](NC(=O)[C@H](CCCCN)NC(=O)[C@@H](NC(=O)[C@H](CCCCN)NC(=O)[C@H](CC(=O)O)NC(=O)[C@H](CCCN=C(N)N)NC(=O)[C@@H](NC(=O)[C@@H](N)CO)[C@@H](C)CC)[C@@H](C)CC)[C@@H](C)O)[C@@H](C)CC)C(=O)N[C@@H](CC(=O)O)C(=O)N[C@@H](CC(C)C)C(=O)N[C@@H](C)C(=O)N[C@@H](CCCCN)C(=O)N[C@@H](CO)C(=O)N[C@@H](C)C(=O)NCC(=O)N[C@H](C(=O)NCC(=O)N[C@H](C(=O)N[C@@H](CC(C)C)C(=O)N[C@@H](CCCCN)C(=O)N[C@H](C(=O)N[C@@H](CC(C)C)C(=O)N[C@H](C(=O)N[C@H]1CSSC[C@@H](C(=O)O)NC(=O)[C@H](CO)NC(=O)[C@H](CCCCN)NC(=O)[C@H](CC(N)=O)NC(=O)[C@H](CC(C)C)NC(=O)[C@H](CCCCN)NC1=O)[C@@H](C)CC)[C@@H](C)O)C(C)C)[C@@H](C)O [SIRDKIKTIAIDLAKSAGTGVLKTLICKLNKSC]	MIC (Escherichia coli ML-35p): 7.14 µM (≈ 25 µg/mL); MIC [2]: 4.28 µM (≈ 15 µg/mL); MIC (Bacillus subtilis): 5.35 µM (≈ 18.7 µg/mL); MIC [3]: 5.35 µM (≈ 18.7 µg/mL)
–	–	≥ 258	≥ 258	≥ 258	> 258	≥ 258	C[C@H](NC(=O)[C@H](Cc1ccccc1)NC(=O)[C@H](CCCCN)NC(=O)[C@H](CCCCN)NC(=O)[C@H](C)NC(=O)[C@H](Cc1ccccc1)NC(=O)[C@@H](N)CCCCN)C(=O)N[C@@H](CCCCN)C(=O)O [KFAKKFAK]	–
> 18	> 18	–	–	–	–	–	CC(C)C[C@H](NC(=O)[C@H](CCCN=C(N)N)NC(=O)[C@@H]1CCCN1C(=O)[C@H](CCCN=C(N)N)NC(=O)[C@H](Cc1cnc[nH]1)NC(=O)[C@H](Cc1cnc[nH]1)NC(=O)[C@@H](N)CO)C(=O)N[C@@H](Cc1ccccc1)C(=O)N[C@@H](Cc1cnc[nH]1)C(=O)N[C@@H](CCCN=C(N)N)C(=O)N[C@@H](Cc1cnc[nH]1)C(=O)N[C@@H](CCCN=C(N)N)C(=O)N[C@@H](Cc1cnc[nH]1)C(=O)O [SHHRPRLFHRHRH]	MIC [6]: > 18 µM; MIC [7]: 18 µM (≈ 32 µg/mL); MIC [8]: > 18 µM; MIC [9]: 18 µM (≈ 32 µg/mL); MIC [10]: > 18 µM
> 18.9	18.9 (≈ 32 µg/mL)	–	–	–	–	–	NC(N)=NCCC[C@H](NC(=O)[C@H](CCCN=C(N)N)NC(=O)[C@H](CS)NC(=O)[C@H](CCCN=C(N)N)NC(=O)[C@H](Cc1cnc[nH]1)NC(=O)[C@H](CO)NC(=O)[C@H](CCCN=C(N)N)NC(=O)[C@H](CS)NC(=O)[C@H](CS)NC(=O)[C@H](CCCN=C(N)N)NC(=O)[C@H](Cc1cnc[nH]1)NC(=O)[C@H](Cc1cnc[nH]1)NC(=O)[C@@H](N)CO)C(=O)O [SHHRCCRSHRCRR]	MIC [6]: > 18.9 µM; MIC [7]: 4.72 µM (≈ 8 µg/mL); MIC [8]: > 18.9 µM; MIC [9]: 18.9 µM (≈ 32 µg/mL); MIC [10]: > 18.9 µM
–	–	≥ 207	1.66 (≈ 2.83 µg/mL)	≥ 73.2	207 (≈ 354 µg/mL)	30.9 (≈ 52.8 µg/mL)	CC(C)C[C@H](NC(=O)[C@H](CCCCN)NC(=O)[C@H](CC(C)C)NC(=O)[C@H](CCCCN)NC(=O)[C@H](CC(C)C)NC(=O)[C@H](CCCCN)NC(=O)[C@H](CC(C)C)NC(=O)[C@H](CCCCN)NC(=O)[C@H](CC(C)C)NC(=O)[C@H](CCCCN)NC(=O)[C@H](CC(C)C)NC(=O)[C@H](CCCCN)NC(=O)[C@@H](N)CC(C)C)C(=O)N[C@@H](CCCCN)C(=O)O [LKLKLKLKLKLKLK]	–
